Patent US20020059032A1, “Rational selection of putative peptides from identified nucleotide or peptide sequences” (priority 1999, published 2002)
Where a SMILES comes first, the peptide text is derived from it.

Target: guinea pig brain membranes
Assay: Binding test with guinea pig brain membranes
Settings: tested on guinea pig brain membranes; read-out: IC50 = 100 μM
Experimental: Binding Assay Alternative Protocol by Skatron
The experimental conditions are identical for all the binding assay protocols except for the fact that: i) the volume R in operation is 200 μl; ii) the test carried out in 96-well Falcon plates iii) the reaction is directly stopped by filtration on filterMat (ref. 11734) Skatron and the radioactivity associated with the filtrate is evaluated: either directly with a γ counter for the peptides labelled with […]: or with a […] in the presence of 5 ml of scintillating liquid.
Membrane Preparations of Guinea Pig Brains and Binding Assay
The guinea pigs are sacrificed by rupturing their cervical vertibrae, decapitated, and the brains are removed very rapidly and placed into a sucrose-Tris-HCl buffer (0.32 M sucrose 5 mM, Tris-HCl, 0.1 g/l bacitracin) at 4° C. (about 10 ml of buffer per brain). The brains are then homogenized using a Potter device and the homogenate is placed in incubation for 30 minutes at 37° C. under agitation, then centrifuged twice for 35 minutes at 100,000×g at 4° C. The protein content of the membrane preparations is evaluated according to the Bradford method (BioRad, according to the manufacturers protocol).
Bonding of Labelled Agonists to the Guinea Pig Brain Membrane Preparation The membranes are placed in a buffer (50 mM of Tris-HCl, 5 mM of MgCl2 and 0.1 g/l of bacitracin) at the desired protein concentration (iodized CCK bond, 0.1 mg of protein/ml; iodized gastrin bond: 0.5 mg of proteins/ml). They are then incubated in the presence of a labelled ligand in a total volume of 500 μl (about 10 pM for the iodized CCK8, 20 pM for the iodized gastrin13), 50-80 minutes at 25° C., and in the presence or absence of cold agonists. The reaction is stopped with 3 ml of additional BSA buffer (20 g/l) at 4° C., the tubes are centrifuged at 10,000×g, the supernatant is drawn off and the radioactivity associated with the precipitate is evaluated with a γ counter.

Row | Structure (SMILES) | IC50 [nM]
1 | CC[C@H](C)[C@H](N)C(=O)N[C@@H](CO)C(=O)N[C@@H](CCC(=O)O)C(=O)N[C@@H](CC(C)C)C(=O)N[C@@H](Cc1ccccc1)C(=O)N[C@H](C(=O)N[C@@H](CC(C)C)C(=O)N[C@@H](CCC(=O)O)C(N)=O)[C@@H](C)O [Example 35, H-ISELFTLE-NH2] (H-ISELFTLE-NH2) | 5600
2 | CC[C@H](C)[C@H](NC(=O)[C@H](C)NC(=O)[C@H](C)NC(=O)[C@@H](NC(=O)[C@H](CO)NC(=O)[C@H](C)NC(=O)[C@H](Cc1ccccc1)NC(=O)[C@H](Cc1ccc(O)cc1)NC(=O)[C@H](CCC(N)=O)NC(=O)[C@@H](NC(=O)[C@@H](N)C(C)C)[C@@H](C)CC)[C@@H](C)CC)C(=O)NCC(=O)N[C@@H](CC(=O)O)C(=O)N[C@@H](CCCNC(=N)N)C(N)=O [Example 52, H-VIQYFASIAAIGDR-NH2] (H-VIQYFASIAAIGDR-NH2) | 7000
3 | CC(C)C[C@H](NC(=O)[C@H](CC(N)=O)NC(=O)[C@H](CC(=O)O)NC(=O)[C@H](Cc1c[nH]c2ccccc12)NC(=O)[C@@H](NC(=O)[C@H](CC(C)C)NC(=O)[C@H](CC(=O)O)NC(=O)[C@H](CO)NC(=O)[C@H](C)NC(=O)[C@@H](N)CO)[C@@H](C)O)C(=O)N[C@@H](CCCCN)C(N)=O [Example 34, H-SASDLTWDNLK-NH2] (H-SASDLTWDNLK-NH2) | 1000
4 | CSCC[C@H](NC(=O)[C@@H](NC(=O)[C@H](CCC(=O)O)NC(=O)[C@H](CCC(=O)O)NC(=O)[C@H](CC(C)C)NC(=O)[C@H](CCC(N)=O)NC(=O)[C@@H](N)CC(C)C)[C@@H](C)O)C(=O)N1CCC[C@H]1C(=O)N[C@@H](CO)C(=O)N1CCC[C@H]1C(=O)N[C@@H](Cc1ccc(O)cc1)C(N)=O [Example 14, H-LQLEETMPSPY-NH2] (H-LQLEETMPSPY-NH2) | 860
5 | CC[C@H](C)[C@H](NC(=O)[C@H](CCCCN)NC(=O)[C@H](Cc1ccccc1)NC(=O)[C@H](CCC(N)=O)NC(=O)[C@H](C)NC(=O)[C@H](Cc1c[nH]c2ccccc12)NC(=O)[C@@H](N)CCC(N)=O)C(=O)N[C@@H](CCC(N)=O)C(=O)N[C@@H](Cc1c[nH]c2ccccc12)C(=O)N[C@@H](CC(N)=O)C(=O)N[C@@H](CCC(N)=O)C(=O)N[C@@H](CCCNC(=N)N)C(=O)N[C@@H](Cc1c[nH]c2ccccc12)C(N)=O [Example 61, H-QWAQFKIQWNQRW-NH2] (H-QWAQFKIQWNQRW-NH2) | 1110
6 | CC(C)C[C@H](NC(=O)[C@H](CO)NC(=O)[C@@H](NC(=O)[C@H](CC(=O)O)NC(=O)[C@@H](N)CO)[C@@H](C)O)C(=O)N[C@H](C(=O)N[C@@H](Cc1c[nH]c2ccccc12)C(=O)N[C@@H](CC(N)=O)C(=O)N[C@@H](CO)C(=O)N[C@H](C(=O)N[C@@H](CCCCN)C(N)=O)C(C)C)[C@@H](C)O [Example 27, H-SDTSLTWNSVK-NH2] (H-SDTSLTWNSVK-NH2) | 680
7 | CC(C)C[C@H](NC(=O)[C@H](C)N)C(=O)N[C@@H](CCC(=O)O)C(=O)N[C@@H](Cc1c[nH]c2ccccc12)C(=O)N[C@@H](CC(C)C)C(=O)NCC(=O)N[C@@H](C)C(=O)N[C@@H](CC(=O)O)C(=O)N[C@@H](CCCNC(=N)N)C(=O)N[C@@H](CC(N)=O)C(=O)N[C@@H](CCC(=O)O)C(N)=O [Example 37, H-ALEWLGADRNE-NH2] (H-ALEWLGADRNE-NH2) | 800
8 | CC(C)C[C@H](NC(=O)[C@H](CCC(N)=O)NC(=O)[C@H](C)NC(=O)[C@@H](NC(=O)[C@H](CCC(=O)O)NC(=O)[C@H](CCC(=O)O)NC(=O)[C@H](CCCCN)NC(=O)[C@@H]1CCCN1C(=O)[C@@H]1CCCN1C(=O)[C@@H](N)CCC(=O)O)[C@@H](C)O)C(=O)N[C@H](C(=O)NCC(=O)N1CCC[C@H]1C(=O)N[C@@H](CCC(=O)O)C(=O)N[C@@H](C)C(N)=O)[C@@H](C)O [Example 65, H-EPPKEETAQLTGPEA-NH2] (H-EPPKEETAQLTGPEA-NH2) | 4000
9 | CSCC[C@H](NC(=O)[C@H](CCC(N)=O)NC(=O)[C@H](CC(C)C)NC(=O)[C@H](CCCCN)NC(=O)[C@@H]1CCCN1C(=O)[C@H](CC(=O)O)NC(=O)[C@H](CCC(N)=O)NC(=O)[C@@H](NC(=O)[C@@H](N)C(C)C)[C@@H](C)O)C(N)=O [Example 8, H-VTQDPKLQM-NH2] (H-VTQDPKLQM-NH2) | 4200

Stronger by IC50, values ahead:

Row | IC50 [nM] | Structure (SMILES)
10 | 37 | CC[C@H](C)[C@H](NC(=O)[C@H](CCCNC(=N)N)NC(=O)[C@H](CC(C)C)NC(=O)[C@H](CC(C)C)NC(=O)CNC(=O)[C@@H](NC(=O)[C@@H](N)Cc1c[nH]cn1)C(C)C)C(=O)N[C@@H](CCCCN)C(N)=O [Example 69, H-HVGLLRIK-NH2] (H-HVGLLRIK-NH2)
11 | 100 | CC[C@H](C)[C@H](NC(=O)[C@H](CC(N)=O)NC(=O)[C@H](Cc1c[nH]cn1)NC(=O)[C@@H](N)CC(C)C)C(=O)N[C@@H](CC(C)C)C(=O)NCC(=O)N[C@H](C(=O)N[C@@H](CCC(=O)O)C(=O)N[C@H](C(=O)NCC(=O)NCC(=O)N1CCC[C@H]1C(=O)NCC(N)=O)[C@@H](C)O)C(C)C [Example 33, H-LHNILGVETGGPG-NH2] (H-LHNILGVETGGPG-NH2)
12 | 2 | CSCC[C@H](NC(=O)[C@@H](N)Cc1ccc(O)cc1)C(=O)N[C@@H](Cc1c[nH]cn1)C(=O)NCC(=O)N[C@@H](Cc1c[nH]cn1)C(=O)N[C@@H](CCCNC(=N)N)C(=O)N[C@@H](C)C(=O)N1CCC[C@H]1C(=O)NCC(N)=O [Example 66, H-YMHGHRAPG-NH2] (H-YMHGHRAPG-NH2)
13 | 100 | CC(C)C[C@H](NC(=O)CNC(=O)[C@H](CC(C)C)NC(=O)[C@H](CC(N)=O)NC(=O)[C@H](CCCNC(=N)N)NC(=O)[C@H](CC(C)C)NC(=O)[C@@H](NC(=O)[C@H](CO)NC(=O)[C@@H](NC(=O)[C@H](CO)NC(=O)[C@@H](N)Cc1ccccc1)C(C)C)[C@@H](C)O)C(N)=O [Example 46, H-FSVSTLRNLGL-NH2] (H-FSVSTLRNLGL-NH2)
14 | 400 | CSCC[C@H](NC(=O)CNC(=O)[C@H](Cc1ccccc1)NC(=O)[C@H](CC(N)=O)NC(=O)[C@H](CCCNC(=N)N)NC(=O)[C@H](CC(C)C)NC(=O)[C@@H](NC(=O)[C@H](CCSC)NC(=O)[C@H](CC(C)C)NC(=O)[C@H](CO)NC(=O)[C@@H](N)Cc1ccccc1)[C@@H](C)O)C(N)=O [Example 28, H-FSLMTLRNFGM-NH2] (H-FSLMTLRNFGM-NH2)
15 | 330 | C[C@@H](O)[C@H](NC(=O)[C@@H](N)CCC(=O)O)C(=O)N[C@@H](CCCCN)C(=O)N[C@@H](Cc1c[nH]cn1)C(=O)NCC(=O)NCC(=O)N[C@@H](Cc1c[nH]cn1)C(=O)N[C@@H](CCCCN)C(=O)N[C@@H](CC(N)=O)C(N)=O [Example 49, H-ETKHGGHKN-NH2] (H-ETKHGGHKN-NH2)
16 | 560 | CC(C)[C@H](NC(=O)[C@@H](NC(=O)[C@H](CCCCN)NC(=O)[C@@H]1CCCN1C(=O)[C@@H](NC(=O)[C@@H](NC(=O)[C@H](C)NC(=O)[C@H](CCCNC(=N)N)NC(=O)[C@@H]1CCCN1)[C@@H](C)O)[C@@H](C)O)[C@@H](C)O)C(=O)N[C@@H](CCCNC(=N)N)C(=O)N[C@@H](CO)C(N)=O [Example 42, H-PRATTPKTVRS-NH2] (H-PRATTPKTVRS-NH2)
17 | 20 | CC[C@H](C)[C@H](NC(=O)[C@@H]1CCCN1C(=O)[C@@H](NC(=O)[C@H](Cc1ccccc1)NC(=O)[C@H](CC(C)C)NC(=O)[C@@H](NC(=O)[C@H](CO)NC(=O)CNC(=O)[C@H](CC(C)C)NC(=O)[C@H](CC(C)C)NC(=O)[C@@H]1CCCN1)[C@@H](C)O)[C@@H](C)CC)C(N)=O [Example 12, H-PLLGSTLFIPI-NH2] (H-PLLGSTLFIPI-NH2)
